Molecular target: T1, C-terminal His6-tagged, recombinant, human JAK2, amino acids 808-end (Homo sapiens, UniProt O60674)
T1 construct: human JAK2, amino acids 808-end; His6 (C); purchased Upstate Biotechnology; host or cells: baculovirus in Sf21 cells
Experiment: JAK2 kinase activity assay (Alphascreen)
Assay type: biochemical
Settings: 150 pM JAK2 enzyme, 30 μM ATP, 80 nM Tyk2 peptide substrate, 60 minutes, room temperature; read-out: JAK inhibitory activity IC50
Method: JAK2 kinase activity was determined by measuring the kinase's ability to phosphorylate synthetic tyrosine residues within a generic polypeptide substrate using an Amplified Luminescent Proximity Assay (Alphascreen) technology (PerkinElmer, 549 Albany Street, Boston, Mass.).
To measure JAK2 kinase activity, a commercially available purified enzyme may be used. The enzyme may be C-terminal His6-tagged, recombinant, human JAK2, amino acids 808-end, (Genbank Accession number NM 004972) expressed by baculovirus in Sf21 cells (Upstate Biotechnology MA). After incubation of the kinase with a biotinylated substrate and adenosine triphosphate (ATP) for 60 minutes at room temperature, the kinase reaction may be stopped by the addition of 30 mM ethylenediaminetetraacetic acid (EDTA). The reaction may be performed in 384 well microtitre plates and the reaction products may be detected with the addition of streptavidin coated Donor Beads and phosphotyrosine-specific antibodies coated Acceptor Beads using the EnVision Multilabel Plate Reader after an overnight incubation at room temperature.

T1 sequence (O60674 808-1132 limits assumed): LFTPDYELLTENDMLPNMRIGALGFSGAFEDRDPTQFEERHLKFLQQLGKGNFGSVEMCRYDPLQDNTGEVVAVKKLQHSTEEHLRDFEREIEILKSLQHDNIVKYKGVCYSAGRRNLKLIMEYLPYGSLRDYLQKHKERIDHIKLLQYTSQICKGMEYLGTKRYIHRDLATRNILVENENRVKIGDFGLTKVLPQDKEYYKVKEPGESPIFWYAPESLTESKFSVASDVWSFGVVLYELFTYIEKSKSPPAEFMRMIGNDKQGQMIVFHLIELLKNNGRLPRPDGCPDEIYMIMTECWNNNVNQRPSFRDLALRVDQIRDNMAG

Row | SMILES | IC50 [nM]
1 | COc1cc(Nc2ncc(C)s2)nc(N[C@@H](C)c2ncc(F)cn2)n1 [Example 10, (S)—N^2-(1-(5-Fluoropyrimidin-2-yl)ethyl)-6-methoxy-N^4-(5-methylthiazol-2-yl)pyrimidine-2,4-diamine] | 3
2 | Cc1cnc(Nc2nc(N[C@@H](C)c3ccc(F)cc3)ncc2Cl)s1 [Example 1, 5-Chloro-N^2-[(1S)-1-(4-fluorophenyl]ethyl)-N^4-(5-methyl-1,3-thiazol-2-yl)pyrimidine-2,4-diamine] | 6
3 | COC(=O)c1cnc(Nc2nc(N[C@@H](C)c3ccc(F)cc3)ncc2Cl)s1 [Example 2, Methyl 2-[(5-chloro-2-{[(1S)-1-(4-fluorophenyl)ethyl]amino}pyrimidin-4-yl)amino]-1,3-thiazole-5-carboxylate] | 170
4 | Cc1cnc(Nc2cc(N3CCN(C)CC3)nc(N[C@@H](C)c3ccc(F)cn3)n2)s1 [Example 5, N^2-[(S)-1-(5-Fluoro-pyridin-2-yl)-ethyl]-6-(4-methyl-piperazin-1-yl)-N^4-(5-methyl-thiazol-2-yl)-pyrimidine-2,4-diamine] | 3

More lines, now with the values ahead:

Row | IC50 [nM] | SMILES
5 | 3 | C[C@H](Nc1nc(Nc2ncc(C#N)s2)cc(N2CCOCC2)n1)c1ccc(F)cn1 [Example 8, 2-[(2-{[(1S)-1-(5-Fluoropyridin-2-yl)ethyl]amino}-6-morpholin-4-ylpyrimidin-4-yl)amino]-1,3-thiazole-5-carbonitrile]
6 | 3 | Cc1cnc(Nc2nc(N[C@@H](C)c3ncc(F)cn3)nc(N3CCOCC3)c2F)s1 [Example 4, 5-Fluoro-N^2-[(1S)-1-(5-fluoropyrimidin-2-yl)ethyl]-N^4-(5-methyl-1,3-thiazol-2-yl)-6-morpholin-4-ylpyrimidine-2,4-diamine]
7 | 902 | Cc1cnc(Nc2nc(N[C@@H](C)c3ccc(F)cn3)ncc2Cl)s1 [Example 3, 5-Chloro-N^2-[(1S)-1-(5-fluoropyridin-2-yl)ethyl]-N^4-(5-methyl-1,3-thiazol-2-yl)pyrimidine-2,4-diamine]

— patent US20100204231A1, “AMINO-THIAZOLYL-PYRIMIDINE DERIVATIVES AND THEIR USE FOR THE TREATMENT OF CANCER” (ASTRAZENECA AB, priority 2007, published 2010)
